Data taken from patent publication US10696615B2, “Prenylated hydroxystilbenes” (The University of Sydney, priority 2011, dated 2020).

Key:
RPMI-8226 = test: NCI in vitro cancer screen, Leukemia; type: cell-based, human; conditions: RPMI, unit not printed (M)
SR = test: NCI in vitro cancer screen, Leukemia; type: cell-based, human; conditions: unit not printed (M)
OVCAR-4 = test: NCI in vitro cancer screen, Ovarian Cancer; type: cell-based, human; conditions: OVCAR-4, unit not printed (M)
human tumor cell lines = test: NCI in vitro cancer screen, whole panel (summary statements); type: cell-based; conditions: result in words
MDA-MB-468 = test: NCI in vitro cancer screen, Breast Cancer; type: cell-based, human; conditions: MDA-MB-468, unit not printed (M)
ACHN = test: NCI in vitro cancer screen, Renal Cancer; type: cell-based, human; conditions: unit not printed (M)
MALME-3M = test: NCI in vitro cancer screen, Melanoma; type: cell-based, human; conditions: MALME-3M, unit not printed (M)
HCC-2998 = test: NCI in vitro cancer screen, Colon Cancer; type: cell-based, human; conditions: HCC-2998, unit not printed (M)
ADR-RES (NCI/ADR-RES) = test: NCI in vitro cancer screen, Ovarian Cancer; type: cell-based, human; conditions: NCI/ADR-RES, unit not printed (M)
CAKI-1 = test: NCI in vitro cancer screen, Renal Cancer; type: cell-based, human; conditions: CAKI-1, unit not printed (M)
[1] = test system: MDA-MB-231 (MDA-MB-231/ATCC); test: NCI in vitro cancer screen, Breast Cancer; type: cell-based, human; conditions: MDA-MB-231/ATCC, unit not printed (M)
HT29 = test: NCI in vitro cancer screen, Colon Cancer; type: cell-based, human; conditions: HT29, unit not printed (M)
NCI-H23 = test: NCI in vitro cancer screen, Non-Small Cell Lung Cancer; type: cell-based, human; conditions: NCI-H23, unit not printed (M)
MCF7 = test: NCI in vitro cancer screen, Breast Cancer; type: cell-based, human; conditions: MCF7, unit not printed (M)
DU-145 = test: NCI in vitro cancer screen, Prostate Cancer; type: cell-based, human; conditions: DU-145, unit not printed (M)
HCT-15 = test: NCI in vitro cancer screen, Colon Cancer; type: cell-based, human; conditions: HCT-15, unit not printed (M)
SNB-19 = test: NCI in vitro cancer screen, CNS Cancer; type: cell-based, human; conditions: SNB-19, unit not printed (M)
SK-MEL-2 = test: NCI in vitro cancer screen, Melanoma; type: cell-based, human; conditions: SK-MEL-2, unit not printed (M)
UACC-257 = test: NCI in vitro cancer screen, Melanoma; type: cell-based, human; conditions: UACC-257, unit not printed (M)
COLO 205 = test: NCI in vitro cancer screen, Colon Cancer; type: cell-based, human; conditions: COLO, unit not printed (M)
HCT-116 = test: NCI in vitro cancer screen, Colon Cancer; type: cell-based, human; conditions: HCT-116, unit not printed (M)
M14 = test: NCI in vitro cancer screen, Melanoma; type: cell-based, human; conditions: M14, unit not printed (M)
UO-31 = test: NCI in vitro cancer screen, Renal Cancer; type: cell-based, human; conditions: UO-31, unit not printed (M)
EKVX = test: NCI in vitro cancer screen, Non-Small Cell Lung Cancer; type: cell-based, human; conditions: unit not printed (M)
NCI-H460 = test: as above; type: cell-based, human; conditions: NCI-H460, unit not printed (M)
SK-MEL-28 = test: NCI in vitro cancer screen, Melanoma; type: cell-based, human; conditions: SK-MEL-28, unit not printed (M)
U251 = test: NCI in vitro cancer screen, CNS Cancer; type: cell-based, human; conditions: U251, unit not printed (M)
NCI-H322M = test: NCI in vitro cancer screen, Non-Small Cell Lung Cancer; type: cell-based, human; conditions: unit not printed (M)
[2] = Homo sapiens, read-out: LC50 (the source's name)

SMILES: COc1cc(/C=C/c2cc(O)cc(O)c2CC=C(C)C)ccc1O [USYDS10, (E)-2-(3-methyl-2-buten-1-yl)-3,4′,5-trihydroxy-3′-methoxystilbene]
- GI50 (RPMI-8226; Homo sapiens, RPMI-8226): 0.324 µM
- CC50 (RPMI-8226; Homo sapiens, RPMI-8226, read-out: LC50 (the source's name)): > 100 µM
- TGI (RPMI-8226): 1.63E−5
- GI50 (SR; Homo sapiens): 0.188 µM
- CC50 (SR; [2]): > 100 µM
- TGI (SR): >1.00E−4
- GI50 (OVCAR-4; Homo sapiens): 1.03 µM
- CC50 (OVCAR-4; [2]): 57.7 µM
- TGI (OVCAR-4): 1.82E−5
- inhibition of cancerous cell growth (human tumor cell lines): structure dependent inhibition of cancerous cell growth
- GI50 (MDA-MB-468; Homo sapiens): 0.373 µM
- CC50 (MDA-MB-468; [2]): 44.9 µM
- TGI (MDA-MB-468): 1.44E−5
- GI50 (ACHN; Homo sapiens): 0.903 µM
- CC50 (ACHN; [2]): > 100 µM
- TGI (ACHN): 3.79E−5
- GI50 (MALME-3M; Homo sapiens): 18.7 µM
- CC50 (MALME-3M; [2]): 92.9 µM
- TGI (MALME-3M): 4.17E−5
- TGI (HCC-2998): 1.19E−5
- GI50 (HCC-2998; Homo sapiens): 1.81 µM
- CC50 (HCC-2998; [2]): 39.8 µM
- GI50 (ADR-RES (NCI/ADR-RES); Homo sapiens): 0.183 µM
- CC50 (ADR-RES (NCI/ADR-RES); [2]): > 100 µM
- TGI (ADR-RES (NCI/ADR-RES)): 8.04E−7
- TGI (CAKI-1): 6.68E−5
- GI50 (CAKI-1; Homo sapiens): 0.539 µM
- CC50 (CAKI-1; [2]): > 100 µM
- GI50 ([1]; Homo sapiens): 0.642 µM
- CC50 [1, 2]: > 100 µM
- TGI [1]: 3.20E−5
- TGI (HT29): 2.13E−5
- GI50 (HT29; Homo sapiens, HT-29): 5.72 µM
- CC50 (HT29; Homo sapiens, HT-29, read-out: LC50 (the source's name)): 69 µM
- GI50 (NCI-H23; Homo sapiens): 0.38 µM
- LC50 (NCI-H23; Homo sapiens): 78.3 µM
- TGI (NCI-H23): 1.52E−5
- GI50 (MCF7; Homo sapiens): 0.332 µM
- CC50 (MCF7; [2]): 50.6 µM
- TGI (MCF7): 1.30E−5
- TGI (DU-145): 2.05E−5
- GI50 (DU-145; Homo sapiens): 0.442 µM
- CC50 (DU-145; [2]): > 100 µM
- TGI (HCT-15): 2.09E−5
- GI50 (HCT-15; Homo sapiens): 0.498 µM
- CC50 (HCT-15; [2]): > 100 µM
- GI50 (SNB-19; Homo sapiens): 0.613 µM
- CC50 (SNB-19; [2]): > 100 µM
- TGI (SNB-19): 2.28E−5
- GI50 (SK-MEL-2; Homo sapiens): 0.576 µM
- LC50 (SK-MEL-2; Homo sapiens): > 100 µM
- TGI (SK-MEL-2): 3.26E−5
- GI50 (UACC-257; Homo sapiens): 11.7 µM
- CC50 (UACC-257; [2]): 73.7 µM
- TGI (UACC-257): 2.94E−5
- TGI (COLO 205): 2.97E−5
- GI50 (COLO 205; Homo sapiens, COLO 205): 15.3 µM
- CC50 (COLO 205; Homo sapiens, COLO 205, read-out: LC50 (the source's name)): 57.7 µM
- TGI (HCT-116): 1.30E−5
- GI50 (HCT-116; Homo sapiens): 0.48 µM
- LC50 (concentration killing 50% of cells) (HCT-116; Homo sapiens): 42.7 µM
- GI50 (M14; Homo sapiens): 0.284 µM
- CC50 (M14; [2]): 41.6 µM
- TGI (M14): 1.42E−5
- GI50 (UO-31; Homo sapiens): 0.878 µM
- CC50 (UO-31; [2]): 95.2 µM
- TGI (UO-31): 2.17E−5
- GI50 (EKVX; Homo sapiens): 12.2 µM
- CC50 (EKVX; [2]): > 100 µM
- TGI (EKVX): 7.34E−5
- GI50 (NCI-H460; Homo sapiens): 0.381 µM
- CC50 (NCI-H460; [2]): 66.1 µM
- TGI (NCI-H460): 1.29E−5
- GI50 (SK-MEL-28; Homo sapiens): 0.572 µM
- LC50 (SK-MEL-28; Homo sapiens): 43 µM
- TGI (SK-MEL-28): 1.69E−5
- GI50 (U251; Homo sapiens, U-251): 0.419 µM
- CC50 (U251; Homo sapiens, U-251, read-out: LC50 (the source's name)): 78.8 µM
- TGI (U251): 1.62E−5
- GI50 (NCI-H322M; Homo sapiens): 11.8 µM
- LC50 (50% lethal concentration) (NCI-H322M; Homo sapiens): 83.7 µM
- TGI (NCI-H322M): 3.14E−5
